In US9012446B2, “Amino-oxazines and amino-dihydrothiazine compounds as beta-secretase modulators and methods of use” (Amgen Inc., priority 2010, dated 2015):
Where two headings read alike, the source gives them in different places.

Columns and labels:
BACE = BACE (Homo sapiens, UniProt P56817); experiment: In vitro enzymatic BACE FRET assay; type: biochemical; conditions: average IC50, enzyme assay; read-out: BACE 1 FRET assay
Method in brief: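 BACE (0.2 nM) preincubated 1 h with serially diluted inhibitors in 0.05 M acetate pH 4.2, 10% DMSO, 100 uM genapol. FRET peptide substrate (50 nM) added, 1 h incubation, then stopped with Tris to neutral pH. Fluorescence from cleavage read at […].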

Abeta 40 = experiment: In vivo inhibition of beta-secretase: Abeta 40 reduction in CSF and brain of the rat; conditions: after 4 hrs; for inhibition in vivo at 10 mg/kg: 10 mpk
Text: In Vivo Inhibition of Beta-Secretase
Several animal models, including mouse, rat, dog, and monkey, may be used to screen for inhibition of beta-secretase activity in vivo following administration of a test compound sample. Animals used in this invention can be wild type, transgenic, or gene knockout animals. For example, the Tg2576 mouse model, prepared and conducted as described in Hsiao et al., 1996, Science 274, 99-102, and other non-transgenic or gene knockout animals are useful to analyze in vivo inhibition of Amyloid beta peptide (Abeta) production in the presence of inhibitory test compounds. Generally, 2 to 18 month old Tg2576 mice, gene knockout mice or non-transgenic animals are administered test compounds formulated in vehicles, such as cyclodextran, phosphate buffers, hydroxypropyl methylcellulose or other suitable vehicles. One to twenty-four hours following the administration of compound, animals are sacrificed, and brains as well as cerebrospinal fluid (CSF) and plasma are removed for analysis of A-beta levels and drug or test compound concentrations (Dovey et al., 2001, Journal of Neurochemistry, 76,173-181) Beginning at time 0, animals are administered by oral gavage, or other means of delivery such as intravenous injection, an inhibitory test compound of up to 100 mg/kg in a standard, conventional formulation, such as 2% hydroxypropyl methylcellulose, 1% Tween80. A separate group of animals receive 2% hydroxypropyl methylcellulose, 1% Tween80 alone, containing no test compound, and serve as a vehicle-control group. At the end of the test period, animals are sacrificed and brain tissues, plasma or cerebrospinal fluid are collected. Brains are either homogenized in 10 volumes (w/v) of 0.2% diethylamine (DEA) in 50 mM NaCl (Best et al., 2005, Journal of Pharmacology and Experimental Therapeutics, 313, 902-908), or in 10 volumes of 0.5% TritonX-100 in Tris-buffered saline (pH at about 7.6). Homogenates are centrifuged at 355,000 g, 4° C. for 30 minutes. CSF or brain supernatants are then analyzed for the presence of A-beta peptide by specific sandwich ELISA assays based on ECL (Electrochemiluminescence) technology. For example, rat Abeta40 is measured using biotinylated-4G8 (Signet) as a capture antibody and Fab40 (an in-house antibody specific to the C-terminal of Abeta40) as a detection antibody. For example, 4 hours after administration of 30 mg/kg oral dose of the test compound in 2% hydroxypropyl methylcellulose, 1% Tween80 (pH2.2) to 200 g male Sprague Dawley rats, amyloid beta peptide levels are measured for reduction by X % and Y % in cerebrospinal fluid and brain, respectively, when compared to the levels measured in the vehicle-treated rats. • Actual vehicles used: Oral: 2% HPMC, 1% Tween80, pH 2.2 • IV: 5% EtOH, 45% Propylene glycol in 5% Dextrose
The compounds of the invention may be shown to reduce the formation and/or deposition of amyloid beta peptide in the cerebrospinal fluid (CSF) as well as in the brain of a mouse or rat at either 3 mpk, 10 mpk or 30 mpk (mpk=mg compound per kg weight of the animal) dosing concentrations after 4 hrs.

Aβ40 = experiment: In vitro BACE cell-based assay (Aβ40 sandwich ELISA, cells stably expressing APP); conditions: Homo sapiens
Method in brief: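 APP-stably-expressing cells, grown 24 h in DMEM/10% FBS, received 10-point compound doses starting at 100 μM or 10 μM (0.1% DMSO final). Secreted Aβ40 in supernatants measured by sandwich ELISA with time-resolved europium fluorescence; IC50 from percent inhibition versus concentration.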

[1] = Abeta 40, rat CSF, read-out: % reduction of rat CSF levels at 10 pmk
[2] = Abeta 40, rat brain, read-out: % reduction of rat brain levels at 10 mpk
[3] = HEK293, average IC50, cell assay, HEK cells
[4] = HEK293, average IC50, read-out: HEK cell assay

Chain of BACE (P56817 46-501, species assumed): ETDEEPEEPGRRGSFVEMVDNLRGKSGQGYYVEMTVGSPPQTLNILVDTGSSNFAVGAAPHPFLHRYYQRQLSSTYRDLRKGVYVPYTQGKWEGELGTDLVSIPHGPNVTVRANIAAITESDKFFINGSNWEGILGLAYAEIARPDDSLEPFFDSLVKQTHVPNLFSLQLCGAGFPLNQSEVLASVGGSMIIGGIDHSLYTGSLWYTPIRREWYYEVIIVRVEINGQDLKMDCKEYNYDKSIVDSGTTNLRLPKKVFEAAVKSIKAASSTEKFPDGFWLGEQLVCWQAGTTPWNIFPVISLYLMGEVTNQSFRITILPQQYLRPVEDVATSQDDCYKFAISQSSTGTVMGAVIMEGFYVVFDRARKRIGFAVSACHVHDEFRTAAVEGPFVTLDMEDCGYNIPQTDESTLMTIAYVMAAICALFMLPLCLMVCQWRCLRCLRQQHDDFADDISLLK

IC50 (BACE) | IC50 (Aβ40; [3]) | IC50 (Aβ40; [4]) | SMILES | inhibition in vivo at 10 mg/kg (Abeta 40; [1]) | inhibition in vivo at 10 mg/kg (Abeta 40; [2]) | % reduction of rat CSF levels (Abeta 40; Abeta 40, rat CSF) | % reduction of rat brain levels (Abeta 40; Abeta 40, rat brain) | % reduction of rat CSF levels (Abeta 40; Abeta 40, rat CSF, at 30 mpk) | % reduction of rat brain levels (Abeta 40; Abeta 40, rat brain, at 30 mpk)
0.4 nM | 2.3 nM | – | NC1=N[C@@]2(COC1)c1cc(-c3cncc(F)c3)ccc1Oc1cnc(-c3ccc(F)c(F)c3)cc12 [Example 114, (S)-3-(3,4-difluorophenyl)-7-(5-fluoropyridin-3-yl)-2′,6′-dihydrospiro[chromeno[2,3-c]pyridine-5,3′-[1,4]oxazin]-5′-amine] | 54% | 34% | – | – | – | –
3.5 nM | – | 6.3 nM | NC1=N[C@@]2(CCO1)c1cc(-c3cccnc3F)ccc1Oc1c(F)cc(-c3cccnc3)cc12 [Example 168, (S)-4′-fluoro-7′-(2-fluoropyridin-3-yl)-2′-(pyridin-3-yl)-5,6-dihydrospiro[[1,3]oxazine-4,9′-xanthen]-2-amine] | 44% | 18% | – | – | – | –
3.8 nM | 6.2 nM | – | NC1=N[C@@]2(CCO1)c1cc(-c3cccnc3F)ccc1Oc1cnc(-c3cncc(F)c3)cc12 [Example 155, (5S)-7-(2-fluoro-3-pyridinyl)-3-(5-fluoro-3-pyridinyl)-5′,6′-dihydrospiro[chromeno[2,3-c]pyridine-5,4′-[1,3]oxazin]-2′-amine] | 68% | 53% | – | – | – | –
4.8 nM | 4.2 nM | – | NC1=N[C@@]2(CCO1)c1cc(-c3cccnc3)ccc1Oc1c(F)cc(C3=CCOCC3)cc12 [Example 156, (4S)-2′-(3,6-dihydro-2H-pyran-4-yl)-4′-fluoro-7′-(3-pyridinyl)-5,6-dihydrospiro[1,3-oxazine-4,9′-xanthen]-2-amine] | 27% | 8% | – | – | – | –
2.8 nM | – | 2.4 nM | CC1(C#Cc2cnc3c(c2)[C@]2(CCOC(N)=N2)c2cc(-c4cccnc4F)ccc2O3)COC1 [Example 61, (S)-7-(2-fluoropyridin-3-yl)-3-((3-methyloxetan-3-yl)ethynyl)-5′,6′-dihydrospiro[chromeno[2,3-b]pyridine-5,4′-[1,3]oxazin]-2′-amine] | 70% | 55% | – | – | – | –
4.8 nM | – | 6.9 nM | NC1=N[C@@]2(CCO1)c1cc(-c3cccnc3F)ccc1Oc1c(F)cc(N3CCOCC3)cc12 [Example 184, (S)-4′-fluoro-7′-(2-fluoropyridin-3-yl)-2′-morpholino-5,6-dihydrospiro[[1,3]oxazine-4,9′-xanthen]-2-amine] | 19% | 12% | – | – | – | –
2 nM | – | 4.4 nM | NC1=N[C@@]2(COC1)c1cc(-c3cc(F)ccc3F)ccc1Oc1ncc(-c3ccnc(F)c3)cc12 [Example 220, (S)-7-(2,5-difluorophenyl)-3-(2-fluoropyridin-4-yl)-2′,6′-dihydrospiro[chromeno[2,3-b]pyridine-5,3′-[1,4]oxazin]-5′-amine] | 38% | 2% | – | – | – | –
0.4 nM | 1.6 nM | – | NC1=N[C@@]2(COC1)c1cc(-c3cccnc3)ccc1Oc1cnc(-c3ccc(F)c(F)c3)cc12 [Example 115, (S)-3-(3,4-difluorophenyl)-7-(pyridin-3-yl)-2′,6′-dihydrospiro[chromeno[2,3-c]pyridine-5,3′-[1,4]oxazin]-5′-amine] | 38% | 21% | – | – | – | –
1.1 nM | – | 2.9 nM | NC1=N[C@@]2(CCO1)c1cc(-c3cccnc3F)ccc1Oc1c(F)cc(C3=CCCOC3)cc12 [Example 173, (S)-2′-(5,6-dihydro-2H-pyran-3-yl)-4′-fluoro-7′-(2-fluoropyridin-3-yl)-5,6-dihydrospiro[[1,3]oxazine-4,9′-xanthen]-2-amine] | 40% | 14% | – | – | – | –
0.6 nM | 0.4 nM | – | CC(C)(C)COc1cc2c(cn1)Oc1ccc(-c3cccnc3)cc1[C@@]21COCC(N)=N1 [Example 119, (S)-3-(neopentyloxy)-7-(pyridin-3-yl)-2′,6′-dihydrospiro[chromeno[2,3-c]pyridine-5,3′-[1,4]oxazin]-5′-amine] | – | – | 5% at 3 mpk | 6% at 3 mpk | – | –
1.8 nM | 2.1 nM | – | NC1=N[C@@]2(CCO1)c1cc(-c3cccnc3F)ccc1Oc1cnc(C3=CCOCC3)cc12 [Example 111, (5S)-3-(3,6-dihydro-2H-pyran-4-yl)-7-(2-fluoro-3-pyridinyl)-5′,6′-dihydrospiro[chromeno[2,3-c]pyridine-5,4′-[1,3]oxazin]-2′-amine] | 81% | 67% | – | – | – | –
0.5 nM | 0.7 nM | – | NC1=N[C@@]2(COC1)c1cc(-c3cccnc3F)ccc1Oc1ncc(-c3ccc(F)cc3)cc12 [Example 91, (S)-3-(4-fluorophenyl)-7-(2-fluoropyridin-3-yl)-2′,6′-dihydrospiro[chromeno[2,3-b]pyridine-5,3′-[1,4]oxazin]-5′-amine] | 29% | 3% | – | – | – | –
4.4 nM | – | 9.6 nM | NC1=N[C@@]2(CCO1)c1cc(-c3cccnc3F)ccc1Oc1c(F)cc(N3CCC(F)(F)CC3)cc12 [Example 185, (4S)-2′-(4,4-difluoro-1-piperidinyl)-4′-fluoro-7′-(2-fluoro-3-pyridinyl)-5,6-dihydrospiro[1,3-oxazine-4,9′-xanthen]-2-amine] | – | – | – | – | 53% at 30 mpk | 26% at 30 mpk
1.6 nM | 18.2 nM | – | NC1=N[C@]2(COC1)c1cc(-c3ccnc(F)c3)ccc1Oc1ccc(-c3cccnc3F)cc12 [Example 65, (R)-2′-(2-fluoropyridin-3-yl)-7′-(2-fluoropyridin-4-yl)-2,6-dihydrospiro[[1,4]oxazine-3,9′-xanthen]-5-amine] | 14% | 55% | – | – | – | –
0.6 nM | 1.2 nM | – | Cc1ccc(-c2cnc3c(c2)[C@]2(COCC(N)=N2)c2cc(-c4cccnc4F)ccc2O3)cc1 [Example 90, (S)-7-(2-fluoropyridin-3-yl)-3-(p-tolyl)-2′,6′-dihydrospiro[chromeno[2,3-b]pyridine-5,3′-[1,4]oxazin]-5′-amine] | – | – | 7% at 3 mpk | 0% at 3 mpk | – | –
2 nM | 2.6 nM | – | NC1=N[C@@]2(CCO1)c1cc(-c3cccnc3F)ccc1Oc1cnc(C3=CCCOC3)cc12 [Example 153, (S)-3-(5,6-dihydro-2H-pyran-3-yl)-7-(2-fluoropyridin-3-yl)-5′,6′-dihydrospiro[chromeno[2,3-c]pyridine-5,4′-[1,3]oxazin]-2′-amine] | 78% | 64% | – | – | – | –
0.3 nM | 3 nM | – | NC1=N[C@@]2(COC1)c1cc(-c3cccnc3F)ccc1Oc1c(F)cc(C3=CCOCC3)cc12 [Example 40, (S)-2′-(3,6-dihydro-2H-pyran-4-yl)-4′-fluoro-7′-(2-fluoropyridin-3-yl)-2,6-dihydrospiro[[1,4]oxazine-3,9′-xanthen]-5-amine] | 33% | 15% | – | – | – | –
